Experimental data from patent US8017747B2, “Apoptosis-inducing genes for treating cancer” (Nationwide Children's Hospital, Inc., priority 2004, dated 2011).
Counter-ions that a name gives are not always drawn. Like-named read-outs stand apart in the source and are kept apart here.

Legend:
[1] = test system: Jurkat cells; test: Jurkat cell growth/viability and late apoptosis, trypan blue exclusion; assay type: cell-based
Experimental: Acute T-cell leukemia cells, Jurkat, were grown in RPMI-1640 (Mediatech) supplemented with 10% FBS and grown at 37° C. in 95% air, 5% CO2. For growth analysis, cells were seeded at a density of 2×10^5 cells and for all other experiments a density of 5×10^5 was used. Transfections were performed using effectene transfection reagent, at a ratio of 1 μg DNA:25 μl effectene.
(§1) To determine cell viability, cells were subjected to trypan blue exclusion assays. Briefly, cells were washed with PBS, and diluted 1:1 in a solution of 0.4% trypan blue. Viable cells were counted and total viable cell number was used for growth curves. Late apoptotic/necrotic cells were also identified by staining with 0.4% trypan blue. The number of apoptotic/necrotic cells were counted and expressed as a percentage of the total number of cells.
Proliferating Jurkat cells were seeded at a density of 2×10^5 cells and transfected with control plasmid, SAGA, or treated with 2 μM VCR. Viable cells were assayed by trypan blue exclusion at 0, 12, 24, 48 and 72 hours post-transfection/treatment. […]
Late apoptosis was quantified as the percentage of dead cells versus total cells. […]
In addition to the single treatment effects of SAGA expression on transfected cells, the combined effects of treatment with SAGA plus VCR were also evaluated in vitro using Jurkat cells. […]

[2] = test system: Jurkat cells; test: Phase contrast microscopy of Jurkat cells (morphological changes); assay type: cell-based; settings: 12 hours
Experimental: SAGA transfected, VCR treated, and control cells were visualized microscopically at 0, 12, 48 and 72 hours post transfection/treatment. At 0 hours, the cells in all groups appeared healthy. At 12 hours, there was approximately 5% apoptosis seen in both SAGA- and VCR-treated cell populations. At 48 and 72 hours, more than 50% of apoptotic cells in SAGA- and VCR-treated cell populations were visualized, with a very high degree of morphologically abnormal cells in the population of cells transfected with SAGA, including late necrotic and lysed cells, appearing as cellular debris.

[3] = test system: Jurkat cells (T-ALL); test: Annexin V/PI staining with FACS, T-ALL (Jurkat); assay type: cell-based
Experimental: (§2) To analyze early apoptotic events, cells from the different experimental conditions were subjected to staining with an Annexin V-FLUOS kit (Roche). FACS analysis was then performed.
Annexin-V/PI is a commonly used method to detect early apoptotic events in cells. We employed this strategy to assay early apoptosis in SAGA transfected cells at 12, 24 and 48 hours.
Apoptotic events were detected by Annexin V staining and by changes in mitochondrial potential, as early as 12 hours post-treatment. In addition to these events, DNA fragmentation was also observed and caspase-3 activation was evident in treated cells. Cytotoxicity was clearly visible by microscopic analysis 24 hours post-treatment (FIG. 3).

[4] = test system: 697Bcl2 cells (B-ALL); test: Annexin V/PI staining with FACS, B-ALL (697Bcl2); assay type: cell-based
Experimental: as §2
(§3) The foregoing descriptions provide many working examples organized under a single example as an aid to the reader. Further, these descriptions emphasized the results obtained with Jurkat cells.

[5] = test system: Jurkat cells; test: DNA fragmentation by agarose gel, Jurkat; assay type: cell-based; settings: 48 hours
Experimental: To analyze DNA fragmentation, cellular DNA was isolated by lysis of cells in Cell Lysis Buffer (50 mM Tris-HCl, pH 8.5, 20 mM EDTA, 1% NP-40 (IGEPAL CA-630)) for 30 minutes on ice, followed by a 1 hour incubation at 56° C. with 500 μg/ml RNase A (Roche) and an overnight incubation with 1 mg/ml proteinase K (Fisher) at 37° C. After allowing the solution to cool to room temperature, proteins were precipitated with Protein precipitation solution (Gentra Systems) and isopropanol was added to the supernatants containing DNA to precipitate that DNA. The resulting RNase-treated DNA was quantified by spectrophotometry and 5 μg of DNA were resolved in a 1.8% agarose gel at 80V for 2 hours. DNA was stained by ethidium bromide and visualized with a UV transilluminator. A 1 kB Plus DNA ladder (Fisher) was run alongside the samples.
DNA fragmentation is a common sign of late-stage apoptosis that is characterized by enzyme-mediated nicks and breaks in the DNA. […] The onset of DNA fragmentation occurred at 12 hours post-treatment for SAGA-treated cells. […] DNA from control cells remained intact throughout the experiment.

[6] = test system: Jurkat cells; test: Western blot of Jurkat lysates (Granzyme B, caspase-3, p21); assay type: cell-based; settings: 48 hours
Experimental: Proteins were extracted from cells by boiling in 0.5% SDS. Quantification of the protein content of the cell lysates was determined using the Lowry method. A total of 15 μg of each cell lysate were analyzed through electrophoretic separation in 12% SDS-PAGE and transferred onto a nitrocellulose membrane using a semi-dry transfer apparatus, at 20V for 1 hour. The membrane was probed with rabbit anti-caspase-3 polyclonal antibody (1:1000, Santa Cruz Biotech), rabbit anti-granzyme B (1:1000, Abcam) or mouse anti-p21 (1:1000, Santa Cruz Biotech) and HRP-conjugated anti-rabbit or anti-mouse IgG (1:5000, Santa Cruz Biotech). Detection was achieved using the ECL or ECL Advanced kits (Amersham) and exposure to X-ray film for varying amounts of time. Protein standards were used for size determination.
Proliferating Jurkat cells were transfected with the survivin promoter-granzyme B construct disclosed herein and termed SAGA, for 24 or 48 hours. Protein extracts were generated from transfected cells and control transfected cells, and analyzed by SDS-PAGE.
After confirming expression of Granzyme B from SAGA, its apoptotic function was tested by assaying for caspase-3 activation. Proliferating Jurkat cells were transfected with SAGA for 24 or 48 hours, as previously described. Protein extracts were separated by SDS-PAGE.
The levels of p21 in control cells at both time points were negligible.

[7] = test system: 697Bcl2 cells; test: 697Bcl2 cell growth, trypan blue exclusion; assay type: cell-based; settings: 72 hours
Source text: as §1, §3

[8] = test system: Daoy cells; test: Daoy cell growth/viability, trypan blue exclusion; assay type: cell-based; settings: 24 hours, VCR 2 μM
Experimental: Medulloblastoma cell lines, i.e., Daoy cells (ATCC HTB-186), were grown in DMEM-(Mediatech) supplemented with 10% FBS and grown at 37° C. in 95% air, 5% CO2. For growth analysis, cells were seeded at a density of 1.5×10^5 cells. Transfections were performed using effectene transfection reagent, at a ratio of 1 μg DNA:10 μl effectene.
as §1
Proliferating Daoy cells were seeded at a density of 1.5×10^5 cells and transfected with control plasmid, SAGA, or treated with 2 μM VCR. Viable cells were assayed by trypan blue exclusion at 0, 24, 48 and 72 hours post-transfection/treatment. There was a 90% decrease in the viability of SAGA-transfected cells at 24 hours compared to 50% for VCR-treated cells. Control cells grew consistently, with a doubling time of approximately 48 hours.

[9] = test system: Daoy cells; test: Phase contrast microscopy of Daoy cells; assay type: cell-based; settings: 48 and 72 hours
Experimental: Living cells in 12-well plates were observed by phase contrast microscopy using a Leica Inverted microscope at 10× magnification.
SAGA-transfected, VCR-treated, and control cells were visualized microscopically at 0, 24, 48 and 72 hours post transfection/treatment. At 0 hours, the cells in all groups appeared healthy.

[10] = test system: SKOV-3 intraperitoneal ovarian tumors; settings: 26 days; for Tumor Size / Tumor Weight: mean

SMILES: CC[C@]1(O)C[C@H]2CN(CCc3c([nH]c4ccccc34)[C@@](C(=O)OC)(c3cc4c(cc3OC)N(C=O)[C@H]3[C@@](O)(C(=O)OC)[C@H](OC(C)=O)[C@]5(CC)C=CCN6CC[C@]43[C@@H]65)C2)C1 [Vincristine, Vincristine sulfate]
- average viability ([1]; 48 hours after treatment): 86%
- final living cell count as % of the initial cell number at time 0 ([1]; 72 hours post-transfection/treatment, VCR 2 μM): 63%
- apoptosis seen microscopically [2]: approximately 5%
- Early Apoptosis ([3]; 24 hours): 46.5%
- Necrosis ([3]; 24 hours): 18%
- Early Apoptosis ([3]; 48 hours): 49.4%
- Necrosis ([3]; 48 hours): 26%
- Early Apoptosis ([4]; 24 hours): 1.78%
- Necrosis ([4]; 24 hours): 1.17%
- Early Apoptosis ([4]; 48 hours): 5.09%
- Necrosis ([4]; 48 hours): 2.34%
- DNA fragmentation [5]: visible
- p21 protein induction [6]: much lower levels
- living cells as % of the original inoculum ([7]; high dose of vincristine (5 μM)): 103%
- decrease in viability [8]: 50%
- apoptotic cells seen microscopically [9]: high numbers of apoptotic cells

SMILES: CC(=O)O[C@H]1C(=O)[C@@]2(C)[C@H]([C@H](OC(=O)c3ccccc3)[C@]3(O)C[C@H](OC(=O)[C@H](O)[C@@H](NC(=O)c4ccccc4)c4ccccc4)C(C)=C1C3(C)C)[C@]1(OC(C)=O)CO[C@@H]1C[C@@H]2O [Paclitaxel, paclitaxel]
- Disease Dissemination [10]: 4 of 5
- Number of Nodules [10]: 6.2 ± 3.9
- Animals with Tumors at Completion of Therapy ([10]; paclitaxel 15 mg/kg i.p. 2 injections, SAGA 0.5 mg/kg DNA i.p. twice weekly): 5 of 5
- Tumor Size [10]: 10.4 ± 1.3 mm
- Tumor Weight [10]: 236.0 ± 79.8 mg
- Tumor Size ([10]; listed as paclitaxel): 10.4 mm
- Tumor Weight ([10]; listed as paclitaxel): 236.0 mg

SMILES: COc1cc([C@@H]2c3cc4c(cc3[C@@H](O[C@@H]3O[C@@H]5CO[C@@H](C)O[C@H]5[C@H](O)[C@H]3O)[C@H]3COC(=O)[C@H]23)OCO4)cc(OC)c1O [Etoposide, etoposide]
- living cells as % of the original inoculum ([7]; vincristine normal serum concentration, etoposide 5 μM): 61.8%
